Data published in ChEMBL document CHEMBL1136299, “Adenosine-anchored triphosphate subsite probing: distinguishing between HER-2 and HER-4 tyrosine protein kinases” (Bioorg Med Chem Lett, 2003).
Calls of active or inactive are those of the source. No cut-off for these calls is given here.

Tests used:
[1] = biological target: Receptor tyrosine-protein kinase erbB-4 (Homo sapiens) (UniProt Q15303); test: Ratio of HER-4 inhibition by diastereomers
[2] = biological target: Receptor tyrosine-protein kinase erbB-2 (Homo sapiens) (UniProt P04626); test: Ratio of HER-2 inhibition by diastereomers
[3] = biological target: Receptor tyrosine-protein kinase erbB-4 (Homo sapiens) (UniProt Q15303); test: Ratio of HER-4 inhibition by diastereomers (inactive)

Receptor tyrosine-protein kinase erbB-2 (Homo sapiens), sequence (P04626 whole entry): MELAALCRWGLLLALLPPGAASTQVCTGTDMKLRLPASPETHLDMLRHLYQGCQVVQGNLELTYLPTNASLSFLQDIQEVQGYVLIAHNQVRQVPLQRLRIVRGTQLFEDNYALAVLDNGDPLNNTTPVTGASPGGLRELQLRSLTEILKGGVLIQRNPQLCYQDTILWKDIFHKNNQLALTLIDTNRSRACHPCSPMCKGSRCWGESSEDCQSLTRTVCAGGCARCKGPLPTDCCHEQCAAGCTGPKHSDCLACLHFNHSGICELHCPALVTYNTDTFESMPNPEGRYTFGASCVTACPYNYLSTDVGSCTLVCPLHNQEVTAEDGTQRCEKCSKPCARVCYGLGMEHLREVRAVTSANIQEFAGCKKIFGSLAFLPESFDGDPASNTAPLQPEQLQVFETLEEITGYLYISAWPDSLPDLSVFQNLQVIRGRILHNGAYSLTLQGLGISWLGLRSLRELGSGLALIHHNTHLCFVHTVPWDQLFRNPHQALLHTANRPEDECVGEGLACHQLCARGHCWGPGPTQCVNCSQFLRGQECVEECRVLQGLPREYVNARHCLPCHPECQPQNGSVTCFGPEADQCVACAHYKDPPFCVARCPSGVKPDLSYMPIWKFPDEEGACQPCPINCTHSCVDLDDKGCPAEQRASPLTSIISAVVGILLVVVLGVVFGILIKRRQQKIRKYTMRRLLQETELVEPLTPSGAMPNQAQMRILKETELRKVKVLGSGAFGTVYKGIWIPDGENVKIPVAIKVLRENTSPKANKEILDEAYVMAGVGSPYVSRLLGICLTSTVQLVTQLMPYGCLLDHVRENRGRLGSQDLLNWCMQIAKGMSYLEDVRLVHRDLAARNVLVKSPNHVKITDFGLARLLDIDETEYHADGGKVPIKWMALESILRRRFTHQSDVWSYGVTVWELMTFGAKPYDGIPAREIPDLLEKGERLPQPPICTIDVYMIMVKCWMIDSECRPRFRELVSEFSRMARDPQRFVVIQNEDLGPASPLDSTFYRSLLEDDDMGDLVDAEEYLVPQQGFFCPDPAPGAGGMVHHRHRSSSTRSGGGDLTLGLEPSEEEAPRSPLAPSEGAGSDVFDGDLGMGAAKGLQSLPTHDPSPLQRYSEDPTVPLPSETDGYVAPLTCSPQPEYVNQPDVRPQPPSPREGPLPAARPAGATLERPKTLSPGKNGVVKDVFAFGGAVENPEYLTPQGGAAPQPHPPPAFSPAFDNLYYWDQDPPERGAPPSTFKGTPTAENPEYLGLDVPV
Receptor tyrosine-protein kinase erbB-4 (Homo sapiens), sequence (Q15303 whole entry): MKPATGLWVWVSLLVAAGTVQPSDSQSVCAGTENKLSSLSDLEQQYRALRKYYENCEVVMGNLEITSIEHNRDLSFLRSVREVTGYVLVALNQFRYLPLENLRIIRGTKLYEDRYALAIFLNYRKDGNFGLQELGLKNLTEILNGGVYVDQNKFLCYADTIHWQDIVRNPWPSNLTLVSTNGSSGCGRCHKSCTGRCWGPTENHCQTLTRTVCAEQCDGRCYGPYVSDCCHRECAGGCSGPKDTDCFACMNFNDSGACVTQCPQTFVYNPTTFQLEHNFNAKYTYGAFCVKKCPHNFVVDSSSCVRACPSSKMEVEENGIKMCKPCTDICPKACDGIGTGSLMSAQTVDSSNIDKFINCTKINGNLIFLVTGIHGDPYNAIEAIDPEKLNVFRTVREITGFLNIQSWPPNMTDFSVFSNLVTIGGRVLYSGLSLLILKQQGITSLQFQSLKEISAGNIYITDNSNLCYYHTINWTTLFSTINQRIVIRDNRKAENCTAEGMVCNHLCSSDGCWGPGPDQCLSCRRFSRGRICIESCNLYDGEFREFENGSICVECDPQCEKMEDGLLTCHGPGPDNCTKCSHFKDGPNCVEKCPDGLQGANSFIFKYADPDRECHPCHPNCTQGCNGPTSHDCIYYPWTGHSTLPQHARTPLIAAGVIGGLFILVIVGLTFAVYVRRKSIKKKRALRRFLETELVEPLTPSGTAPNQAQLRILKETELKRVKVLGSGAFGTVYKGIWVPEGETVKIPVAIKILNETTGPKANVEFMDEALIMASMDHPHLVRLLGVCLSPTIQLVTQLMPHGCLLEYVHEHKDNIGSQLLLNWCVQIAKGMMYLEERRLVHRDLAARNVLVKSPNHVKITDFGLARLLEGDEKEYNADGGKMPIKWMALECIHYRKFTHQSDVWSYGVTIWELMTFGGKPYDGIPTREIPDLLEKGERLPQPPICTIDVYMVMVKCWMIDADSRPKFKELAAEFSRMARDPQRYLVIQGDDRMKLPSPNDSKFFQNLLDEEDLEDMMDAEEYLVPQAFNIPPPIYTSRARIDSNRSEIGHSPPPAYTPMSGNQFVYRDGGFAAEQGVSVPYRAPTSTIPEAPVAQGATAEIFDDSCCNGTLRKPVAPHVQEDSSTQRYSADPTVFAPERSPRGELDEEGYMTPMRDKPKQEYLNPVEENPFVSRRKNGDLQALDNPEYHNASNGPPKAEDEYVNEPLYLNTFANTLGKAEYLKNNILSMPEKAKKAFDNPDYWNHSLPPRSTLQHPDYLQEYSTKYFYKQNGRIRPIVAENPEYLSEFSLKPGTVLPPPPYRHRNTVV

Row | Selectivity [1] | Selectivity [2] | Selectivity [3] | SMILES
1 | 1.2 | 54.7 | – | CN1C(=O)C2(C(N)=O)O[C@@]1(C)CC2OC(=O)NC[C@H]1O[C@@H](n2cnc3c(N)ncnc32)[C@H](O)[C@@H]1O.CN1CC2(C(N)=O)O[C@]1(C)C(=O)C2OC(=O)NC[C@H]1O[C@@H](n2cnc3c(N)ncnc32)[C@H](O)[C@@H]1O (some centres not stated)
2 | – | 3.1 | inactive | CCOC1CC2(C[C@H]3O[C@@H](n4cnc5c(NC(=O)OCc6ccccc6)ncnc54)[C@H](O)[C@@H]3O)OC1(C(=O)OC)C(=O)N2C.CCOC1C[C@@]2(C[C@H]3O[C@@H](n4cnc5c(NC(=O)OCc6ccccc6)ncnc54)[C@H](O)[C@@H]3O)OC1(C(=O)OC)C(=O)N2C (some centres not stated)
3 | 1.6 | 34.4 | – | CCOC1CC2(C[C@H]3O[C@@H](n4cnc5c(N)ncnc54)[C@H](O)[C@@H]3O)OC1(C(=O)OC)C(=O)N2C (some centres not stated)
4 | 1.4 | 4.8 | – | CCOC1CC2OC1(C(=O)OC)C(=O)N2C[C@H]1O[C@@H](n2cnc3c(N)ncnc32)[C@H](O)[C@@H]1O.CCOC1C[C@@]2(C)OC1(C(=O)OC)C(=O)N2C[C@H]1O[C@@H](n2cnc3c(N)ncnc32)[C@H](O)[C@@H]1O (some centres not stated)
5 | – | 1.7 | inactive | CCOC1CC2(C)OC1(C(=O)OC)C(=O)N2C[C@H]1O[C@@H](n2cnc3c(NC(=O)OCc4ccccc4)ncnc32)[C@H](O)[C@@H]1O.CCOC1C[C@@]2(C)OC1(C(=O)OC)C(=O)N2C[C@H]1O[C@@H](n2cnc3c(NC(=O)OCc4ccccc4)ncnc32)[C@H](O)[C@@H]1O (some centres not stated)
6 | – | 9.1 | inactive | CCOC1CC2(C)OC1(C(=O)NC[C@H]1O[C@@H](n3cnc4c(N)ncnc43)[C@H](O)[C@@H]1O)C(=O)N2C (some centres not stated)
